From ChEMBL document CHEMBL1201862, “PubChem BioAssay data set” (2004) come the findings set out here.

Some test systems named below: MDA-MB-435; SF-268; HCC 2998; SK-MEL-5; ACHN; OVCAR-5; NCI-H226; M14; SK-OV-3; UACC-257; EKVX; LOX IMVI; NCI-H460; A498; RPMI-8226; SK-MEL-28; OVCAR-3; HL-60; HOP-62; Malme-3M.
What all share (assay): DTP human tumour cell line panel, 48 h

Molecules are shown by their SMILES.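 The compound was tested at five concentrations on cells cultured in 96-well plates, with a 48-hour exposure period. Here, GI50 denotes the concentration required for 50% inhibition of growth.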 Calls of active or inactive are those of the source. Cut-off read from the data, not from the text of the source: active = GI50 up to about 1.1 µM and inactive = higher.

For orientation: GI50 means the concentration giving 50% growth inhibition. With `CC(=O)O[C@@H]1[C@H](OC2CCCCC2(c2ccccc2)c2ccccc2)O[N+]([O-])=CC12CCCCC2` (stereo not given in full), the GI50 was 15.6 µM (inactive) in the assay with MDA-MB-435; 18.6 µM (inactive) with SF-268; 17.1 µM (inactive) in the assay on HCC 2998; 15 µM (inactive) in the assay on SK-MEL-5; 17.6 µM (inactive) in the assay with ACHN; 15.8 µM (inactive) with OVCAR-5. In addition, the GI50 is 14.1 µM (inactive) in the assay with NCI-H226; 18.7 µM (inactive) in the assay with M14; 13.4 µM (inactive) in the assay with SK-OV-3; 17.1 µM (inactive) in the assay with UACC-257; 17.9 µM (inactive) in the assay on EKVX; 22 µM (inactive) in the assay with LOX IMVI. In addition, the GI50 is 18.2 µM (inactive) in the assay on NCI-H460; 16.3 µM (inactive) with A498; 33 µM (inactive) in the assay on RPMI-8226; 13.8 µM (inactive) in the assay on SK-MEL-28; 14.9 µM (inactive) in the assay on OVCAR-3; < 0.01 µM (active) in the assay on HL-60.

For the molecule `O=C(Nc1ccc2oc(=O)c(C(=O)O)cc2c1)Oc1ccccc1`, the GI50 in the assay on MDA-MB-435 was > 100 µM (inactive); in the assay with SF-268 it was > 100 µM (inactive); in the assay with HCC 2998, 59.6 µM (inactive); in the assay with SK-MEL-5, > 100 µM (inactive); in the assay with HOP-62, > 100 µM (inactive); with ACHN, > 100 µM (inactive). Moreover, the GI50 in the assay with OVCAR-5, in the assay on NCI-H226, in the assay on M14, in the assay on SK-OV-3, with UACC-257 and in the assay with EKVX was > 100 µM (inactive) each time. The GI50 in the assay on LOX IMVI, with NCI-H460, in the assay with Malme-3M, in the assay on A498, with RPMI-8226 and in the assay on SK-MEL-28 was > 100 µM (inactive) in each case. Besides, in the assay with OVCAR-3, the GI50 is > 100 µM (inactive).

Consider `C=CCC1=CC2(OC)C(=O)C(OC)(OC)C1C1C(OC)(OC)C(=O)C(OC)=CC12CC=C` (stereo not given), for which the GI50 with MDA-MB-435, in the assay with SF-268, in the assay with HCC 2998, in the assay on SK-MEL-5, in the assay with HOP-62 and with ACHN was > 100 µM (inactive) throughout. Further, the GI50 was > 100 µM (inactive) with OVCAR-5; > 100 µM (inactive) in the assay on M14; 67.8 µM (inactive) in the assay on SK-OV-3; > 100 µM (inactive) with UACC-257; > 100 µM (inactive) in the assay on EKVX; > 100 µM (inactive) in the assay with LOX IMVI. In addition, the GI50 with NCI-H460, with Malme-3M, in the assay on A498, with RPMI-8226, in the assay with SK-MEL-28 and with OVCAR-3 was > 100 µM (inactive) throughout. Moreover, in the assay on HL-60, the GI50 is > 100 µM (inactive).

As to `Clc1c(Cl)c(Cl)c2c(nnn2C2CCCO2)c1Cl` (stereo not given), the GI50 is 34.1 µM (inactive) in the assay with MDA-MB-435; 29.8 µM (inactive) in the assay on SF-268; 29.8 µM (inactive) with HCC 2998; 40.1 µM (inactive) in the assay on SK-MEL-5; 40.5 µM (inactive) with HOP-62; 41.7 µM (inactive) in the assay on OVCAR-5. The GI50 with NCI-H226 is 34.4 µM (inactive); in the assay on M14, 39.6 µM (inactive); with SK-OV-3, 75.9 µM (inactive); in the assay with UACC-257, 35.6 µM (inactive); with EKVX, 22.3 µM (inactive); in the assay with NCI-H460 it was 13.9 µM (inactive). Besides, the GI50 in the assay on Malme-3M was 31.3 µM (inactive); in the assay with A498, 27.5 µM (inactive); in the assay on OVCAR-3, 34.6 µM (inactive); with HL-60, 5.79 µM (inactive).

Regarding `C[n+]1cc2cc(O)c(O)cc2c2ccc3cc(O)c(O)cc3c21.c1ccncc1`, the GI50 is 2.46 µM (inactive) with MDA-MB-435; 2.18 µM (inactive) with SF-268; 3.92 µM (inactive) with HCC 2998; 3.24 µM (inactive) in the assay with SK-MEL-5; 2.12 µM (inactive) in the assay on HOP-62; 2.69 µM (inactive) in the assay with ACHN. Also, the GI50 in the assay with OVCAR-5 is 6.24 µM (inactive); in the assay with NCI-H226, 4.86 µM (inactive); in the assay with M14, 2.18 µM (inactive); in the assay with SK-OV-3, 4.33 µM (inactive); with UACC-257 it was 4.25 µM (inactive); in the assay with EKVX it was 3.37 µM (inactive). Also, the GI50 in the assay on LOX IMVI was 2.61 µM (inactive); with NCI-H460, 2.86 µM (inactive); in the assay on Malme-3M, 2.59 µM (inactive); in the assay with A498 it was 2.51 µM (inactive); with RPMI-8226, 5.4 µM (inactive); in the assay on SK-MEL-28 it was 4.66 µM (inactive). In addition, the GI50 in the assay with OVCAR-3 is 2.37 µM (inactive).

On to `CCOc1ccc(Nc2nc3c(s2)C(=O)c2ccccc2C3=O)cc1`, for which the GI50 in the assay with MDA-MB-435 was 1.79 µM (inactive); in the assay with SF-268 it was 3.63 µM (inactive); in the assay on HCC 2998, 17.1 µM (inactive); with SK-MEL-5, 2.27 µM (inactive); with HOP-62 it was 17.7 µM (inactive); in the assay on ACHN, 14.5 µM (inactive). Besides, the GI50 in the assay on OVCAR-5 was 21.6 µM (inactive); in the assay with M14, 12.2 µM (inactive); with SK-OV-3 it was 19.7 µM (inactive); in the assay on UACC-257, 10.4 µM (inactive); with EKVX, 20 µM (inactive); in the assay with LOX IMVI, 3.76 µM (inactive). For the same molecule, the GI50 is 15 µM (inactive) in the assay on NCI-H460; 2.77 µM (inactive) with Malme-3M; 15.8 µM (inactive) with A498; 3.85 µM (inactive) with RPMI-8226; 18.9 µM (inactive) with SK-MEL-28; 3.04 µM (inactive) in the assay with OVCAR-3. In addition, the GI50 with HL-60 was 3.19 µM (inactive).

`CCN(CC)/C(Sc1ccccc1)=C(\C(Cl)=C(Cl)Cl)[N+](=O)[O-]`: the GI50 in the assay on MDA-MB-435 was 13.5 µM (inactive); in the assay on SF-268, 21.4 µM (inactive); in the assay on HCC 2998, 19.5 µM (inactive); with SK-MEL-5, 14.1 µM (inactive); in the assay with HOP-62 it was 23.5 µM (inactive); in the assay with ACHN, 17.1 µM (inactive). Further, the GI50 with NCI-H226 was 18.5 µM (inactive); in the assay on M14 it was 17.3 µM (inactive); with SK-OV-3, 33.4 µM (inactive); with UACC-257, 19.1 µM (inactive); in the assay on EKVX, 15.6 µM (inactive); in the assay with LOX IMVI it was 11 µM (inactive). In addition, the GI50 with NCI-H460 is 21.7 µM (inactive); in the assay on Malme-3M it was 18 µM (inactive); in the assay with A498, 21.1 µM (inactive); with SK-MEL-28 it was 17.9 µM (inactive); with OVCAR-3, 16.4 µM (inactive); in the assay with HL-60 it was 1.81 µM (inactive).

For the molecule `C=CC(O)C#Cc1cnc(OC)nc1OC` (stereo not given), the GI50 with MDA-MB-435, in the assay with SF-268, with HCC 2998, in the assay on SK-MEL-5, with HOP-62 and in the assay on ACHN was > 100 µM (inactive) throughout. Also, the GI50 was > 100 µM (inactive) with OVCAR-5; 30.1 µM (inactive) with NCI-H226; > 100 µM (inactive) in the assay on M14; > 100 µM (inactive) in the assay with UACC-257; > 100 µM (inactive) in the assay on EKVX; > 100 µM (inactive) in the assay with LOX IMVI. The GI50 was > 100 µM (inactive) in the assay with NCI-H460; 16.3 µM (inactive) with A498; > 100 µM (inactive) in the assay on SK-MEL-28; > 100 µM (inactive) in the assay on OVCAR-3; 17.2 µM (inactive) in the assay on HL-60.
